Measured values as given in ChEMBL document CHEMBL5725469, “C17-aryl substituted betulinic acid analogs” (2018).

Test: HIV cell culture assay: MT-2 cells and 293T cells were obtained from the NIH AIDS Research and Reference Reagent Program. MT-2 cells were propagated in RPMI 1640 media supplemented with 10% heat inactivated fetal bovine serum, 100 μg/mL penicillin G and up to 100 units/mL streptomycin. The 293T cells were propagated in DMEM media supplemented with 10% heat inactivated fetal bovine serum (FBS), 100 units/mL penicillin G and 100 μg/mL streptomycin. The proviral DNA clone of NL4-3 was obtained from the NIH AIDS Research and Reference Reagent Program. A recombinant NL4-3 virus, in which a section of the nef gene from NL4-3 was replaced with the Renilla luciferase gene, was used as a reference virus. In addition, residue Gag P373 was converted to P373S. Briefly, the recombinant virus was prepared by transfection of the altered proviral clone of NL4-3. Transfections were performed in 293T cells using LipofectAMINE PLUS from Invitrogen (Carlsbad, Calif.), according to manufacturer's instruction. The virus was titered in MT-2 cells using luciferase enzyme activity as a marker. Luciferase was quantitated using the Dual Luciferase kit from Promega (Madison, Wis.), with modifications to the manufacturer's protocol. The diluted Passive Lysis solution was pre-mixed with the re-suspended Luciferase Assay Reagent and the re-suspended Stop & Glo Substrate (2:1:1 ratio). Fifty (50) μL of the mixture was added to each aspirated well on assay plates and luciferase activity was measured immediately on a Wallac TriLux (Perkin-Elmer). Antiviral activities of inhibitors toward the recombinant virus were quantified by measuring luciferase activity in cells infected for 4-5 days with NLRluc recombinants in the presence serial dilutions of the inhibitor.
Type: cell-based

SMILES | EC50 [nM]
C=C(C)[C@@H]1CC[C@]2(c3ncn(CCN4CCS(=O)(=O)CC4)n3)CC[C@]3(C)[C@H](CC[C@@H]4[C@@]5(C)CC=C(c6ccc(C(=O)O)cc6)C(C)(C)[C@@H]5CC[C@]43C)[C@@H]12 | > 100
C=C(C)[C@@H]1CC[C@]2(c3nnc(CN(C)C)o3)CC[C@]3(C)[C@H](CC[C@@H]4[C@@]5(C)CC=C(c6ccc(C(=O)O)cc6)C(C)(C)[C@@H]5CC[C@]43C)[C@@H]12 | > 100
C=C(C)[C@@H]1CC[C@]2(c3ncnn3C)CC[C@]3(C)[C@H](CC[C@@H]4[C@@]5(C)CC=C(c6ccc(C(=O)O)cc6)C(C)(C)[C@@H]5CC[C@]43C)[C@@H]12 | > 100
C=C(C)[C@@H]1CC[C@]2(c3nnco3)CC[C@]3(C)[C@H](CC[C@@H]4[C@@]5(C)CC=C(c6ccc(C(=O)O)cc6)C(C)(C)[C@@H]5CC[C@]43C)[C@@H]12 | > 100
C=C(C)[C@@H]1CC[C@]2(c3nc[nH]n3)CC[C@]3(C)[C@H](CC[C@@H]4[C@@]5(C)CC=C(c6ccc(C(=O)O)cc6)C(C)(C)[C@@H]5CC[C@]43C)[C@@H]12 | > 100
C=C(C)[C@@H]1CC[C@]2(C#Cc3ccsc3-c3nnn[nH]3)CC[C@]3(C)[C@H](CC[C@@H]4[C@@]5(C)CC=C(c6ccc(C(=O)O)cc6)C(C)(C)[C@@H]5CC[C@]43C)[C@@H]12 | < 100
